{"source": "patent US20020058299A1", "about": "“Mycologic genera specific selective agar and method of manufacture” (priority 2000, published 2002)", "system": "aggressive fungi", "test": "Empirical trials of Minimum Inhibitory Concentration levels that suppress aggressive fungi without restricting Stachybotrys", "format": "cell-based", "conditions": "added to PDA base media", "method": "In order to be successful in culturing Stachybotrys from environmental samples, Aspergillus flavus, Aspergillus fumigatus, Aspergillus vervicolor, Cladosporium species, Penicillium species, in addition to other fungi and bacteria, need to be suppressed. While conceptually simple, the difficulty is to determine which base media, in combination with which one or more antibiotics, at what concentrations, incubated at what temperature regimes, for how long, would achieve inhibition of competitors—without restricting Stachybotrys. Extensive experimental trials empirically determined the Minimum Inhibitory Concentration (MIC) levels of various compounds that would effectively suppress aggressive fungi without restricting Stachybotrys development. Through this empirical effort there has been developed a proprietary formula for a selective agar (PDA+) based on commercially available base media and additional ingredients for the specific recovery of Stachybotrys chartarum.\n(2) Miconazole (antifungal compound added to base media at 1.6 micrograms (μg) per milliliter (ml) of PDA+, the optimum concentration within the functional range of 1.0 to 3.2 μg/ml).", "data": [{"smiles": "Clc1ccc(COC(Cn2ccnc2)c2ccc(Cl)cc2Cl)c(Cl)c1", "note": "(stereo not shown) [Miconazole]", "values": [{"measurement": "optimum concentration in PDA+", "result": "1.6 micrograms (μg) per milliliter (ml)"}]}]}
